Assay: Solubility of bis-urea monomers in diacetone alcohol (DAA)
Format: physicochemical
Conditions: solvent diacetone alcohol
Method: Three bis-urea monomers were synthesized from toluene-2,4-diisocyanate (TDI) on the one hand, 6-amino-1-hexanol, 2-amino-1-butanol and 2-aminopropanol on the other hand, all purchased from Aldrich. The TDI was stored at 4° C. with the aim of preventing side reactions. The dichloromethane was obtained from VWR and distilled and dried before use. The table below indicates the No. assigned to each bis-urea in the rest of the example, the starting products for its synthesis, a schematic representation of its formula and its solubility in DAA.

For `CCC(CO)NC(=O)Nc1ccc(C)c(NC(=O)NC(CC)CO)c1` (stereo not drawn) [Bis-urea5], which “Solubility in DAA” value is on record?
The value was 2.4 % by wt.

With `Cc1ccc(NC(=O)NCCCCCCO)cc1NC(=O)NCCCCCCO` [Bis-urea4] as the compound, how does the “Solubility in DAA” value read?
The value was 7.5 % by wt.

With `Cc1ccc(NC(=O)NCC(C)O)cc1NC(=O)NCC(C)O` (stereo not drawn) [Bis-urea1] as the compound, how does the “Solubility in DAA” value read?
Its value is 8 % by wt.
